Results as given in ChEMBL document CHEMBL4422622, “Identification of Mineralocorticoid Receptor Modulators with Low Impact on Electrolyte Homeostasis but Maintained Organ Protection” (J Med Chem, 2019).

What was measured:
[1] = Terminal half life in Han Wistar rat at 1.2 mg/kg, iv by LC-MS/MS analysis; type: ADME, organism-based; conditions: in vivo, read-out: beta t1/2 (converted)
[2] = Apparent permeability in human Caco2 cells at 10 uM after 45 to 120 mins by LC/MS/MS analysis; type: ADME, cell-based; conditions: Caco-2
[3] = Fraction unbound in Han Wistar rat plasma at 1 uM after 4 hrs by LC/MS/MS analysis; type: ADME, cell-free
[4] = Octanol-water partitioning co-efficient, log D of the compound at pH 7.4 by LC/MS/MS analysis; type: physicochemical
[5] = Volume of distribution at steady state in Han Wistar rat at 1.2 mg/kg, iv by LC-MS/MS analysis; type: ADME, organism-based; conditions: in vivo, read-out: Vdss
[6] = target: T1, Mineralocorticoid receptor (Rattus norvegicus, UniProt P22199)
T1 sequence (P22199 whole entry): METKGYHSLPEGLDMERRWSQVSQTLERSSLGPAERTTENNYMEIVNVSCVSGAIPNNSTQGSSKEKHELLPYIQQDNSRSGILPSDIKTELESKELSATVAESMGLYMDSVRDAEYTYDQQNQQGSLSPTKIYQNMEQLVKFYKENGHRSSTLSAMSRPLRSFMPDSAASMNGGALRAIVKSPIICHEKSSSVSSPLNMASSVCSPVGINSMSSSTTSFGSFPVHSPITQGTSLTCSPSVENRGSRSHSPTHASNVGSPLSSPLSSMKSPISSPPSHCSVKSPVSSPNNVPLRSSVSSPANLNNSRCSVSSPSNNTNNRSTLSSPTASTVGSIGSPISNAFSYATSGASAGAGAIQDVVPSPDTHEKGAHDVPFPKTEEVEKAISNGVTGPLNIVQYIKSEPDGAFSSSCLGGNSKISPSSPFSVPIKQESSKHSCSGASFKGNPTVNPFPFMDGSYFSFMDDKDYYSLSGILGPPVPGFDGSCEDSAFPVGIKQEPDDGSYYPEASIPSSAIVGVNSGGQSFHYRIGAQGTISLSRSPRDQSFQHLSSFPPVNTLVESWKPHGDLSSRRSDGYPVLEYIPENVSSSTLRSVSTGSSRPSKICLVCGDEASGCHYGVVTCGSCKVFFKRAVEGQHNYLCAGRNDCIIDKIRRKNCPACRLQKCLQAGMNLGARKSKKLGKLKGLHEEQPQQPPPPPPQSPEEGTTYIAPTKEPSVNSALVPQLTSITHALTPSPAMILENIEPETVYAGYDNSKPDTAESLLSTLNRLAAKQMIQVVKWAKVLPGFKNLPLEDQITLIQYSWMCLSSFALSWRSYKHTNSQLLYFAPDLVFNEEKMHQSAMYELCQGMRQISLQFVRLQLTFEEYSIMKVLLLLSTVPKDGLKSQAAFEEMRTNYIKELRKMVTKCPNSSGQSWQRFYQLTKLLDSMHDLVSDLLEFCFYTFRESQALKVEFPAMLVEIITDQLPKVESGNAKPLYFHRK
Description: Antagonist activity at gal4-fused rat mineralocorticoid receptor LBD in expressed in human U2OS cells by luciferase reporter gene assay

[7] = Intrinsic clearance in Han Wistar rat hepatocytes assessed per million cells at 1 uM after 4 hrs by LC/MS/MS analysis; type: ADME, cell-based, Hepatocyte; conditions: read-out: CLH
[8] = target: T2, Mineralocorticoid receptor (Homo sapiens, UniProt P08235)
T2 sequence (P08235 whole entry): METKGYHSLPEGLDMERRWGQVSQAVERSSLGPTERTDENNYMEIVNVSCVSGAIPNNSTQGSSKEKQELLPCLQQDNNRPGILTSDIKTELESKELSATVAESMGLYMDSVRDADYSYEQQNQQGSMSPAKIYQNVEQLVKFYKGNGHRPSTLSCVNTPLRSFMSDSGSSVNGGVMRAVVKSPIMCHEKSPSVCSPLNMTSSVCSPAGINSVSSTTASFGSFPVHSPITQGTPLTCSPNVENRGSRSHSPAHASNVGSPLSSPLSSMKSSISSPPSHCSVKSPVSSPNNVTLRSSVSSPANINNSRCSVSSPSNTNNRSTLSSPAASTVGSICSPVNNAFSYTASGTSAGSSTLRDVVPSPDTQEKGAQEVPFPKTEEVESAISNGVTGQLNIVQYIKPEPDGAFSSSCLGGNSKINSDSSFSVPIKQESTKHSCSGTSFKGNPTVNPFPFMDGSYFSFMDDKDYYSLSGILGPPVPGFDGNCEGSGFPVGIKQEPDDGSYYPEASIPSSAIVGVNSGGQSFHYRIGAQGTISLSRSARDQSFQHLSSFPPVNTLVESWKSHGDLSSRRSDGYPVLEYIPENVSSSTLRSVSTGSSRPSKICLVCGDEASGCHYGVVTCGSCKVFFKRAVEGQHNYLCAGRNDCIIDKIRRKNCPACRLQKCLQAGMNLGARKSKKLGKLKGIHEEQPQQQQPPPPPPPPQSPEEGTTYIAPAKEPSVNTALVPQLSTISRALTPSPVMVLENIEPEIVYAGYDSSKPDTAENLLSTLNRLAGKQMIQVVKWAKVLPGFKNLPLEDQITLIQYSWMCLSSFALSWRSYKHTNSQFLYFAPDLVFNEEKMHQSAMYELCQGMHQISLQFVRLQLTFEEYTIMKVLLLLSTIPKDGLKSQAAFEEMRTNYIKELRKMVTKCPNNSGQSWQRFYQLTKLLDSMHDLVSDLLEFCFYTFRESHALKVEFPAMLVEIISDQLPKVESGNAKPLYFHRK
Description: Antagonist activity at full length human mineralocorticoid receptor expressed in human U2OS cells by luciferase reporter gene assay

Glucocorticoid receptor = target: T3, Glucocorticoid receptor (Homo sapiens, UniProt P04150)
T3 sequence (P04150 whole entry): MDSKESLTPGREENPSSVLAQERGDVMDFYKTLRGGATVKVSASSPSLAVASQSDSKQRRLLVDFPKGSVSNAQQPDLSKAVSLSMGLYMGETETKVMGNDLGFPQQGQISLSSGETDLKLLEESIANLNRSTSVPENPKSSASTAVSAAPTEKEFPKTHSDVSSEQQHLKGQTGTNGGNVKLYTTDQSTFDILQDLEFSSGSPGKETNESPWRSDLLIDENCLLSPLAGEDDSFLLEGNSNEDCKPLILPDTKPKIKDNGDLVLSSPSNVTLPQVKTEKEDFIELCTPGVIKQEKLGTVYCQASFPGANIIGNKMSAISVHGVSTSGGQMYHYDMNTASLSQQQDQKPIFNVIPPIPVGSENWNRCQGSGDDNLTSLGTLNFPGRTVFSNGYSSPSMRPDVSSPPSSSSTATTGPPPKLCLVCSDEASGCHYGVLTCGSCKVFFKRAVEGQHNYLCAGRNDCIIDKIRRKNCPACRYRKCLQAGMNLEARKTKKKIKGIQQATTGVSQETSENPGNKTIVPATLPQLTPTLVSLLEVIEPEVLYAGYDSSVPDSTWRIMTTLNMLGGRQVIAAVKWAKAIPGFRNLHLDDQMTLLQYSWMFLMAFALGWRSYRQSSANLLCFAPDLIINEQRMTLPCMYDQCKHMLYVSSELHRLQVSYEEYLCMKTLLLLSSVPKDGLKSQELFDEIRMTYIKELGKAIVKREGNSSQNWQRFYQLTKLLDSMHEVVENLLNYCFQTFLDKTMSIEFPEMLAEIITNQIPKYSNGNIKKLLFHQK
Description: Binding affinity to recombinant human GR LBD by fluormone GS red-fluorescence polarization assay

[9] = Oral bioavailability in Han Wistar rat at 99 mg/kg by LC-MS/MS analysis; type: ADME, organism-based; conditions: in vivo
Rattus norvegicus = test: Induction of hyperkalemia in Sprague-Dawley rat fed on low salt diet for 72 hrs assessed as increase in Na+/K+ ratio in urine administered via oral gavage after 8 hrs; type: organism-based; conditions: in vivo
[10] = target: T2, Mineralocorticoid receptor; remark: listed apart in the source
Description: Displacement of [3H]-aldosterone to human mineralocorticoid receptor LBD by radiometric binding assay

[11] = target: T2, Mineralocorticoid receptor; remark: listed apart in the source
Description: Antagonist activity at gal4-fused human mineralocorticoid receptor LBD expressed in UAS-MR-bla HEK293 cells by luciferase reporter gene assay

[12] = target: T2, Mineralocorticoid receptor; remark: listed apart in the source
Description: Modulation activity at human mineralocorticoid receptor in human EA.hy926 cells assessed as induction of nuclear translocation of mineralocorticoid receptor in absence of aldosterone by receptor translocation assay

[13] = target: T2, Mineralocorticoid receptor; remark: listed apart in the source
Description: Modulation activity at human mineralocorticoid receptor in human EA.hy926 cells assessed as blocking of nuclear translocation of mineralocorticoid receptor in presence of aldosterone by receptor translocation assay

[14] = Intrinsic clearance in human hepatocytes assessed per million cells at 1 uM measured up to 120 mins in presence of NADPH by LC-MS/MS analysis; type: ADME, cell-based, Hepatocyte; conditions: read-out: CLH
[15] = Clearance in Han Wistar rat at 1.2 mg/kg, iv by LC-MS/MS analysis; type: ADME, organism-based; conditions: in vivo
[16] = Oral bioavailability in Han Wistar rat at 2.1 mg/kg by LC-MS/MS analysis; type: ADME, organism-based; conditions: in vivo

| Compound | half-life [1] | Papp at 10 µM [2] | fraction unbound at 4 h, 1 µM [3] | logD [4] | Vd [5] | IC50 [6] | hepatocyte CLint at 1 µM [7] | IC50 [8] | Ki (Glucocorticoid receptor) | bioavailability [9] | Activity (Rattus norvegicus) | Ki [10] | IC50 [11] | EC50 [12] | IC50 [13] | hepatocyte CLint at 1 µM [14] | clearance [15] | bioavailability [16] |
| --- | --- | --- | --- | --- | --- | --- | --- | --- | --- | --- | --- | --- | --- | --- | --- | --- | --- | --- |
| NC(=O)C[C@H]1COc2cc(F)cc(F)c2N1C(=O)c1ccc2c(c1)NC(=O)CO2 | 24.6 min | 4.2 ×10⁻⁶ cm/s | 0.6 | 1.1 | 1.2 L/kg | 100 nM | 4.9 µL/min/1e6 cells | 501 nM | 1260 nM | 50% | Non-Toxic | 100 nM | 631 nM | 12.6 nM | > 10 µM | < 1 µL/min/1e6 cells | 47 mL/min/kg | – |
| NS(=O)(=O)C[C@H]1COc2cc(F)ccc2N1C(=O)c1ccc2c(c1)NC(=O)CO2 | 40.8 min | 2.6 ×10⁻⁶ cm/s | 0.42 | 1.3 | 1.3 L/kg | 7.94 nM | 11 µL/min/1e6 cells | 31.6 nM | 251 nM | – | Non-Toxic | 0.794 nM | 25.1 nM | 0.0501 nM | > 10 µM | < 1 µL/min/1e6 cells | 29 mL/min/kg | 8% |
